Patent US11304957B2, “Substituted quinazolines for inhibiting kinase activity” (NeuPharma, Inc., priority 2013, dated 2022)

Columns and labels:
Format in all cases: biochemical
[1] = target: BTK (Homo sapiens (Human), UniProt Q06187); assay: Z'-LYTE kinase inhibition assay, BTK; details: read-out: % inhibition BTK; heading: % inhibition BTK; compound at 0.041 μM
Description: (§1) Inhibitory activities of compounds against BTK, EGFR and EGFR mutants (EGFR L858R, EGFR T790M, EGFR L858R/T790M), FGFR1, FGFR2, JAK2, JAK3 and KDR were measured by Invitrogen using Z′-LYTE® Method as briefly described in the following.
(§2) Test Compounds are screened in 1% DMSO (final) in the well. For 10 point titrations, 3-fold serial dilutions are conducted from the starting concentration. All ATP Solutions are diluted to a 4× working concentration in Kinase Buffer (50 mM HEPES pH 7.5, 0.01% BRIJ-35, 10 mM MgCl2, 1 mM EGTA). Peptide/Kinase Mixtures are diluted to a 2× working concentration in the appropriate Kinase Buffers as described below.
(v) Peptide/Kinase Mixtures for Measurement of BTK:
The 2×BTK/Tyr 01 mixture is prepared in 50 mM HEPES pH 7.5, 0.01% BRIJ-35, 10 mM MgCl2, 1 mM EGTA.
The mixture is then incubated for another 60-minute at room temperature for development reaction. Finally fluorescence is read by plate reader.
(§3) To determine IC50 of a compound against EGFR, EGFR mutant and other kinases, a series of concentrations of the compound were tested for the inhibition. […] The scale utilized in Table 4 is as follows: +++ less than 100 nM, ++ 100-500 nM and + greater than 500 nM.

[2] = target: JAK2 (Homo sapiens (Human), UniProt O60674); assay: Z'-LYTE kinase inhibition assay, JAK2; details: read-out: % inhibition JAK2; heading: % inhibition JAK2; compound at 0.041 μM
Sequence of JAK2 (O60674 whole entry): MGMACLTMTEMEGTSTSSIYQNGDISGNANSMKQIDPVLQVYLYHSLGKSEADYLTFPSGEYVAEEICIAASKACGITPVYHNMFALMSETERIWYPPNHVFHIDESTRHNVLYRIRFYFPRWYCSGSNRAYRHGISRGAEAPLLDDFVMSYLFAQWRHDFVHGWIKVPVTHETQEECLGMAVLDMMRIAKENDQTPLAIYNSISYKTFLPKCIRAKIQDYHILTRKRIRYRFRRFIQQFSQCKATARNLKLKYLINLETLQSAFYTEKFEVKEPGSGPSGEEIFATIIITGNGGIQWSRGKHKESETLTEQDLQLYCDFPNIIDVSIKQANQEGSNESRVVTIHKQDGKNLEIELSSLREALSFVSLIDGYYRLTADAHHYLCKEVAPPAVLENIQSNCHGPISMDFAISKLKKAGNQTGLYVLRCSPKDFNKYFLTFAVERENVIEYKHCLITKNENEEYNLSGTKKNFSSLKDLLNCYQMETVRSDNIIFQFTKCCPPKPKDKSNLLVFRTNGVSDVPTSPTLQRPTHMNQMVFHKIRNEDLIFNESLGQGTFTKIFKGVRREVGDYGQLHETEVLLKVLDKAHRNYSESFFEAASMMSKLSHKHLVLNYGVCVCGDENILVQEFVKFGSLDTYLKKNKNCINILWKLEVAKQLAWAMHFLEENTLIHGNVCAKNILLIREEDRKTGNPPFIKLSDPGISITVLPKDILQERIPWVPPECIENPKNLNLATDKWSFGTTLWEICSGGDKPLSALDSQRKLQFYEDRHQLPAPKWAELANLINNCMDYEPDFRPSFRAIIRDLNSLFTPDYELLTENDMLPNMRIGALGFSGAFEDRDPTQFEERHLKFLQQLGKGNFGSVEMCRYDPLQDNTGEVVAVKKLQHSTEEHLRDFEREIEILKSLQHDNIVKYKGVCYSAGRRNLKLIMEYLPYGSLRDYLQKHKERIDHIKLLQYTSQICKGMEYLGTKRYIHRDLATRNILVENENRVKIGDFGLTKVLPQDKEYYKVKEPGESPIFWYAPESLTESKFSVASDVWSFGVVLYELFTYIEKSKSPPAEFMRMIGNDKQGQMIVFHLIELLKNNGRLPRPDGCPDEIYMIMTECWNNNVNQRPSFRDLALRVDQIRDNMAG
Description: as §1, §2
(v) Peptide/Kinase Mixtures for Measurement of JAK2:
The 2×JAK2/Tyr 06 mixture is prepared in 50 mM HEPES pH 7.5, 0.01% BRIJ-35, 10 mM MgCl2, 1 mM EGTA. The final 10 μL Kinase Reaction consists of 0.06-0.81 ng JAK2 and 2 μM Tyr 06 in 50 mM HEPES pH 7.5, 0.01% BRIJ-35, 10 mM MgCl2, 1 mM EGTA. After the 1 hour Kinase Reaction incubation, 5 μL of a 1:64 dilution of Development Reagent A is added.
(§4) Reaction starts by 30-second shaking of mixture consisting of 2.5 μL 4× test compound, 5 μL 2× kinase reaction mixture and 2.5 μL 4×ATP Solution on Bar-coded Corning, low volume NBS, black 384-well plate (Corning Cat. #3676). Then the mixture is incubated for 60-minute at room temperature for the kinase reaction, followed by addition of 5 μL of a 1:1024 dilution of development reagent A and 30-second plate shake. The mixture is then incubated for another 60-minute at room temperature for development reaction. Finally fluorescence is read by plate reader.

[3] = target: FGFR1 (Homo sapiens (Human), UniProt P11362); assay: Z'-LYTE kinase inhibition assay, FGFR1; details: read-out: % inhibition FGFR1; heading: % inhibition FGFR1; compound at 0.041 μM
Sequence of FGFR1 (P11362 22-822): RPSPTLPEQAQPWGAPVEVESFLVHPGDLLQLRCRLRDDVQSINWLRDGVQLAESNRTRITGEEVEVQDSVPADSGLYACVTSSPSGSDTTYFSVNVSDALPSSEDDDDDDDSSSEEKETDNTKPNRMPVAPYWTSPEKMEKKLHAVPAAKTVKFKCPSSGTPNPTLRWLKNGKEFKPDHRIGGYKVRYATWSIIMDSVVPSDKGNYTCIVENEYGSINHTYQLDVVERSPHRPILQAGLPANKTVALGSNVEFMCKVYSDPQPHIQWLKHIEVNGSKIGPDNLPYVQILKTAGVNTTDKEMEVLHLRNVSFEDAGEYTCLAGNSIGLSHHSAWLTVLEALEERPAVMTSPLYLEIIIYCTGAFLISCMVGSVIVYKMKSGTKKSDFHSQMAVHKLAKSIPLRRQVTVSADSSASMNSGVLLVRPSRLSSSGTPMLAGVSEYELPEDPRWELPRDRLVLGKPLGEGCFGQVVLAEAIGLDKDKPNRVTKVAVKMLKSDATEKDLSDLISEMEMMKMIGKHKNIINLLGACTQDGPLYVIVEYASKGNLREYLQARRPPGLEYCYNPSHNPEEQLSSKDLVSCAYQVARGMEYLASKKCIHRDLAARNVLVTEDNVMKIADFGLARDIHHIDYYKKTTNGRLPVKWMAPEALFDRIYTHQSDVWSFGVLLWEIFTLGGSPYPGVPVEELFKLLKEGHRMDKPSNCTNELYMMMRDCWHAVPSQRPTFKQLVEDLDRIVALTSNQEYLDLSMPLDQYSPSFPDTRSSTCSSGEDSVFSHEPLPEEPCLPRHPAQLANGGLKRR
Description: as §1, §2
(v) Peptide/Kinase Mixtures for Measurement of FGFR1:
The 2×FGFR1/Tyr 04 mixture is prepared in 50 mM HEPES pH 7.5, 0.01% BRIJ-35, 10 mM MgCl2, 4 mM MnCl2, 1 mM EGTA, 2 mM DTT. The final 10 μL Kinase Reaction consists of 0.41-3.5 ng FGFR1 and 2 μM Tyr 04 in 50 mM HEPES pH 7.5, 0.01% BRIJ-35, 10 mM MgCl2, 2 mM MnCl2, 1 mM EGTA, 1 mM DTT. After the 1 hour Kinase Reaction incubation, 5 μL of a 1:64 dilution of Development Reagent B is added.
as §4, §3

[4] = target: EGFR (ErbB1) T790M L858R (Homo sapiens (Human), UniProt P00533, L858R/T790M); assay: Z'-LYTE kinase inhibition assay, EGFR L858R/T790M; details: for inhibition at 0.0137 µM: read-out: % inhibition EGFR L858R/T790M (Compound at 0.0137 μM)
Sequence of EGFR (ErbB1) T790M L858R (P00533 25-1210 T790M/L858R): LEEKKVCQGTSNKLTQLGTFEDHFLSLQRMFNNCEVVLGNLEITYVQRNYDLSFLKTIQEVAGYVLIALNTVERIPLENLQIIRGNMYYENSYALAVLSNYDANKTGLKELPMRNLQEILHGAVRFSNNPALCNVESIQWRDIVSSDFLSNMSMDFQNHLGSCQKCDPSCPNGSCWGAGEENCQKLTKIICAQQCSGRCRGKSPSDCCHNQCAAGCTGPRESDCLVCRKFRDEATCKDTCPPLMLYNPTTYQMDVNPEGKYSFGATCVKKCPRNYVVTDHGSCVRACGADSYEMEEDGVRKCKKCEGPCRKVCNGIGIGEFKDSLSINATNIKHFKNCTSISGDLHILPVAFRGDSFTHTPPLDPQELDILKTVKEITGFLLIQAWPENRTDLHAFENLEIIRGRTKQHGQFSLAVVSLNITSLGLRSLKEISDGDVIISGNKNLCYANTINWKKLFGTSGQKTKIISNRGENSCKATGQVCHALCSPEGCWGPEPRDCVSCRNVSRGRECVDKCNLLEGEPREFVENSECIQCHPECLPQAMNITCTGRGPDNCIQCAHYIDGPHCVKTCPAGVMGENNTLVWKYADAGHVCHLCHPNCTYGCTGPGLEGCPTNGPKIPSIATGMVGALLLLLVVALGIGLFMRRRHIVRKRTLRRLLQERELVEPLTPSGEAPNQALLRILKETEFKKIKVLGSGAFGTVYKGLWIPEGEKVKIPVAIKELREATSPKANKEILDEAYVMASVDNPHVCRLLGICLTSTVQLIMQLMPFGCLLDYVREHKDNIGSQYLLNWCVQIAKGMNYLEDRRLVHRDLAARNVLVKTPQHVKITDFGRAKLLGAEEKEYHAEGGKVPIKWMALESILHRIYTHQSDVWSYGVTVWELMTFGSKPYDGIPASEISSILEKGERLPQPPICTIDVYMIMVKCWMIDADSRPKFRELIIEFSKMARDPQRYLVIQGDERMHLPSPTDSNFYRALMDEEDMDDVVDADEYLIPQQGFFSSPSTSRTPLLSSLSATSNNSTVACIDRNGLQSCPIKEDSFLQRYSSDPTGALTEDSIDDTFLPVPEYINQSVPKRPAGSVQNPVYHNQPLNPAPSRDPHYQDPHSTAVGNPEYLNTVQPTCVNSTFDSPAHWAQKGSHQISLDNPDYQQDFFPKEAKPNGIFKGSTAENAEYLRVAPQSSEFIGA
Description: Inhibitory activities of compounds against BTK, EGFR and EGFR mutants (EGFR L858R, EGFR T790M, EGFR L858R/T790M), FGFR1, FGFR2, JAK2, JAK3 and KDR were measured by Invitrogen using Z'-LYTE® Method as briefly described in the following. Test Compounds are screened in 1% DMSO (final) in the well. For 10 point titrations, 3-fold serial dilutions are conducted from the starting concentration. All ATP Solutions are diluted to a 4× working concentration in Kinase Buffer (50 mM HEPES pH 7.5, 0.01% BRIJ-35, 10 mM MgCl2, 1 mM EGTA). Peptide/Kinase Mixtures are diluted to a 2× working concentration in the appropriate Kinase Buffers as described below. (iv) Peptide/Kinase Mixtures for Measurement of EGFR (ErbB1) T790M L858R: The 2×EGFR (ErbB1) […] mixture is prepared in 50 mM HEPES pH 6.5, 0.01% BRIJ-35, 10 mM MgCl2, 1 mM EGTA, 0.02% NaN3. […] After the 1 hour Kinase Reaction incubation, 5 μL of a 1:64 dilution of Development Reagent B is added. Reaction starts by 30-second shaking of mixture consisting of 2.5 μL 4× test compound, 5 μL 2× kinase reaction mixture and 2.5 μL 4×ATP Solution on Bar-coded Corning, low volume NBS, black 384-well plate (Corning Cat. #3676). Then the mixture is incubated for 60-minute at room temperature for the kinase reaction, followed by addition of 5 μL of a 1:1024 dilution of development reagent A and 30-second plate shake. The mixture is then incubated for another 60-minute at room temperature for development reaction. Finally fluorescence is read by plate reader. To determine IC50 of a compound against EGFR, EGFR mutant and other kinases, a series of concentrations of the compound were tested for the inhibition.

Sequence of BTK (Q06187 whole entry): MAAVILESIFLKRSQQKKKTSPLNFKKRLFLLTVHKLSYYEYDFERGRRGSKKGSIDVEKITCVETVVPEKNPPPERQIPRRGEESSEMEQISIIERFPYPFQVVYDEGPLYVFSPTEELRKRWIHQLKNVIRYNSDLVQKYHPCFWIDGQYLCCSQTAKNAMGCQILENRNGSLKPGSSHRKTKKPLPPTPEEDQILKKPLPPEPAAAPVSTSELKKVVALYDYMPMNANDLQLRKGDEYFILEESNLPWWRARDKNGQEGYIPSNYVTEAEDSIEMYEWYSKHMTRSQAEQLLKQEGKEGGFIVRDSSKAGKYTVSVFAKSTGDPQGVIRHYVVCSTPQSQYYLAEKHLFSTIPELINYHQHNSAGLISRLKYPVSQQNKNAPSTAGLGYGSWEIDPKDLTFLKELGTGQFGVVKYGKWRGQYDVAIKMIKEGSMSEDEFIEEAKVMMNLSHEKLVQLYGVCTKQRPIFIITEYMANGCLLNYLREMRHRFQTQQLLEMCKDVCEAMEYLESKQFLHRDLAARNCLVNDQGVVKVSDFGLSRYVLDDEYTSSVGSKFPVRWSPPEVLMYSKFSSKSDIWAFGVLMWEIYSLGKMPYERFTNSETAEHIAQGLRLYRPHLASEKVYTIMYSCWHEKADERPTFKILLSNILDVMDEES

| Compound | inhibition at 0.041 µM [1] | inhibition at 0.041 µM [2] | inhibition at 0.041 µM [3] | inhibition at 0.0137 µM [4] | inhibition at 1 µM ([4]; read-out: % inhibition EGFR L858R/T790M (Compound at 1 μM)) |
| --- | --- | --- | --- | --- | --- |
| Clc1cccc(-c2cccc3cnc(Nc4ccc(N5CCOCC5)cc4)nc23)c1 [Example C008, 8-(3-chlorophenyl)-N-(4-morpholinophenyl)quinazolin-2-amine] | < 50% | – | < 50% | – | – |
| C=CC(=O)Nc1cccc(-c2cccc3cnc(Nc4ccc(N5CCN(C)CC5)cc4)nc23)c1 [Example C021, N-(3-(2-((4-(4-methylpiperazin-1-yl)phenyl)amino)quinazolin-8-yl)phenyl)acrylamide] | – | > 50% | – | > 50% | – |
| CC(=O)Nc1cccc(-c2cccc3cnc(Nc4ccc(N5CCN(C)CC5)cc4)nc23)c1 [Example C022, N-(3-(2-((4-(4-methylpiperazin-1-yl)phenyl)amino)quinazolin-8-yl)phenyl)acetamide] | > 50% | > 50% | – | – | – |
| Fc1ccc(OCCN2CCOCC2)cc1-c1cccc2cnc(Nc3ccc(N4CCOCC4)cc3)nc12 [Example C023, 8-(2-fluoro-5-(2-morpholinoethoxy)phenyl)-N-(4-morpholinophenyl)quinazolin-2-amine] | < 50% | < 50% | < 50% | – | – |
| C=CC(=O)Nc1cccc(-c2cccc3cnc(Nc4ccc(N5CCN(C(C)=O)CC5)cc4)nc23)c1 [Example C032, N-(3-(2-((4-(4-acetylpiperazin-1-yl)phenyl)amino)quinazolin-8-yl)phenyl)acrylamide] | > 50% | > 50% | – | < 50% | > 50% |
| C=CC(=O)Nc1cccc(-c2c(C)ccc3cnc(Nc4ccc(N5CCOCC5)cc4)nc23)c1 [Example C033, N-(3-(7-methyl-2-((4-morpholinophenyl)amino)quinazolin-8-yl)phenyl)acrylamide] | > 50% | < 50% | – | – | – |
| C=CC(=O)Nc1cncc(-c2cccc3cnc(Nc4ccc(N5CCN(C)CC5)cc4)nc23)c1 [Example C040, N-(5-(2-((4-(4-methylpiperazin-1-yl)phenyl)amino)quinazolin-8-yl)pyridin-3-yl)acrylamide] | > 50% | < 50% | – | > 50% | – |
| C=CC(=O)Nc1cccc(-c2cccc3cnc(Nc4ccc(N5CCN(C)CC5)nc4OC)nc23)c1 [Example C055, N-(3-(2-((2-methoxy-6-(4-methylpiperazin-1-yl)pyridin-3-yl)amino)quinazolin-8-yl)phenyl)acrylamide] | < 50% | < 50% | – | – | – |
| C=CC(=O)Nc1cccc(-c2cccc3cnc(Nc4ccc(N5CCN(CCO)CC5)cc4)nc23)c1 [Example C059, N-(3-(2-((4-(4-(2-hydroxyethyl)piperazin-1-yl)phenyl)amino)quinazolin-8-yl)phenyl)acrylamide] | – | – | > 50% | > 50% | – |

Second part, led by results:

| inhibition at 0.041 µM [1] | inhibition at 0.041 µM [2] | inhibition at 0.041 µM [3] | Compound | inhibition at 0.0137 µM [4] | inhibition at 1 µM ([4]; read-out: % inhibition EGFR L858R/T790M (Compound at 1 μM)) |
| --- | --- | --- | --- | --- | --- |
| > 50% | > 50% | > 50% | C=CC(=O)Nc1cccc(-c2cccc3cnc(Nc4ccc(N5CCOCC5)cc4)nc23)c1 [Example C001, N-(3-(2-((4-morpholinophenyl)amino)quinazolin-8-yl)phenyl)acrylamide] | – | – |
| – | – | > 50% | Fc1cccc(-c2cccc3cnc(Nc4ccc(N5CCNCC5)cc4)nc23)c1 [Example C027, 8-(3-fluorophenyl)-N-(4-(piperazin-1-yl)phenyl)quinazolin-2-amine] | – | – |
| – | – | < 50% | C=CC(=O)Nc1cccc(-c2cccc3cnc(Nc4ccc(N5CCN(C(C)=O)CC5)nc4)nc23)c1 [Example C036, N-(3-(2-((6-(4-acetylpiperazin-1-yl)pyridin-3-yl)amino)quinazolin-8-yl)phenyl)acrylamide] | – | – |
| – | – | < 50% | C=CC(=O)Nc1cccc(-c2cccc3cnc(Nc4ccc(N5CCN(C)CC5)cc4F)nc23)c1 [Example C044, N-(3-(2-((2-fluoro-4-(4-methylpiperazin-1-yl)phenyl)amino)quinazolin-8-yl)phenyl)acrylamide] | – | – |
| – | – | < 50% | C=CC(=O)Nc1cccc(-c2cccc3cnc(Nc4ccc(N5CCN(C(C)=O)CC5)cc4)nc23)c1Cl [Example C051, N-(3-(2-((4-(4-acetylpiperazin-1-yl)phenyl)amino)quinazolin-8-yl)-2-chlorophenyl)acrylamide] | – | – |
| > 50% | > 50% | > 50% | C=CC(=O)Nc1cccc(-c2cccc3cnc(Nc4ccc(N5CCN(CCF)CC5)cc4)nc23)c1 [Example C053, N-(3-(2-((4-(4-(2-fluoroethyl)piperazin-1-yl)phenyl)amino)quinazolin-8-yl)phenyl)acrylamide] | – | – |
| > 50% | > 50% | – | C=CC(=O)Nc1cccc(-c2cccc3cnc(Nc4ccc(N5CCN(C)CC5)cc4)nc23)c1Cl [Example C054, N-(2-chloro-3-(2-((4-(4-methylpiperazin-1-yl)phenyl)amino)quinazolin-8-yl)phenyl)acrylamide] | – | – |
| – | – | > 50% | C=CC(=O)Nc1cccc(-c2cccc3cnc(Nc4ccc(N5CCN(C)CC5)c(OC)c4)nc23)c1 [Example C075, N-(3-(2-((3-methoxy-4-(4-methylpiperazin-1-yl)phenyl)amino)quinazolin-8-yl)phenyl)acrylamide] | – | – |
